Test results reported in article PMC3500847 (ChemMedChem, 2012).
Bridge positions count the residues as written; N and C are the ends. Square brackets hold non-standard residues; d marks the D form. Peptide text beside a SMILES is read from it. d(aThr) = C[C@@H](O)[C@@H](N)C(=O)O; 12Ado = NCCCCCCCCCCCC(=O)O

Columns and labels:
[1] = tested on: S. aureus ATCC 33591 (MRSA); assay type: cell-based, Staphylococcus aureus
[2] = tested on: S. aureus ATCC 700699 (Mu50, VRSA); assay type: cell-based, Staphylococcus aureus
[3] = tested on: variety of fungi, including Candida albicans and Cryptococcus neoformans, and Gram-positive bacteria such as S. aureus; settings: range over fungi and Gram-positive bacteria; cited from earlier work
[4] = tested on: human liver embryonic cell line WRL 68; assay type: cell-based
HepG2 cancer cell line = assay type: cell-based, human

MIC [1] [µg/mL]	MIC [2] [µg/mL]	Compound	MICs [3] [µg/mL]	cytotoxicity [4]	cytotoxicity (HepG2 cancer cell line)
>128	>128	CC(=O)N[C@@H]1C(=O)N[C@H](C(C)C)C(=O)N[C@@H](C(C)C)C(=O)N[C@H]([C@@H](C)O)C(=O)N[C@H](CC(N)=O)C(=O)N[C@H](C)C(=O)O[C@@H]1C [compound 2] (Ac-T[dV]V[d(aThr)][dN][dA]; ester 1-C)	–	–	–
>128	>128	CC(=O)N[C@@H]1C(=O)N[C@H](C(C)C)C(=O)N[C@@H](C(C)C)C(=O)N[C@H]([C@H](C)O)C(=O)N[C@H](CC(N)=O)C(=O)N[C@H](C)C(=O)O[C@@H]1C [compound 1] (Ac-T[dV]V[dT][dN][dA]; ester 1-C)	–	did not show appreciable cytotoxicity	did not show appreciable cytotoxicity

Further lines, the compound ahead of its results:

Compound	MIC [1] [µg/mL]	MIC [2] [µg/mL]	MICs [3] [µg/mL]	cytotoxicity [4]	cytotoxicity (HepG2 cancer cell line)
CC(C)[C@@H]1NC(=O)[C@@H](C(C)C)NC(=O)[C@@H](NC(=O)CCCCCCCCCCCN)[C@@H](C)OC(=O)[C@@H](C)NC(=O)[C@@H](CC(N)=O)NC(=O)[C@@H]([C@@H](C)O)NC1=O [compound 4] (H-[12Ado]T[dV]V[d(aThr)][dN][dA]; ester 2-C)	>128	>128	–	–	–
fusaricidin A	–	–	0.78 to 3.12	–	–
CC(C)[C@@H]1NC(=O)[C@@H](C(C)C)NC(=O)[C@@H](NC(=O)CCCCCCCCCCCN)[C@@H](C)OC(=O)[C@@H](C)NC(=O)[C@@H](CC(N)=O)NC(=O)[C@@H]([C@H](C)O)NC1=O [compound 3] (H-[12Ado]T[dV]V[dT][dN][dA]; ester 2-C)	>128	>128	–	–	–
